Here are results for twelve molecules from patent US4412998A, “Certain 4-(1-piperidino)-phenyl-nicotinates” (Merz & Company, priority 1979, dated 1983).

Usually ED50 stands for the dose that gives a 50% effect, or the effect in half of the subjects. In general, LD50 refers to the dose expected to kill half of the subjects tested. Lower therefore signals a more toxic substance.

Series [1] can be described thus: Cholesterol reduction in rats on high-fat diet. In kind it is in vivo, female Wistar rats. The conditions noted are these: Rattus norvegicus, read-out: Chol. Red. in %. As to the method:
(§1) Additionally, experiments on female Wistar rats were carried out. For a period of 3 weeks the animals received a special diet with a very high fat content. Starting from the second week, half the rats were treated with a dosage of 100 and 25 mg/kg body weight. After the third week blood samples were taken 18 hours after administration of the last dose. Triglyceride and cholesterol concentrations were compared with that of the untreted animals. Cholesterol and triglycerides were determined with the aid of the Boehringer enzymatic test.

A short description of series [2]: Triglyceride reduction in rats on high-fat diet. The series is classed as in vivo, female Wistar rats. As to conditions: Rattus norvegicus, high fat diet 3 weeks, blood 18 hours after last dose, read-out: Triglyc. Red. in %. The procedure:
as §1

The nature of another series: ED50 in rat (Table 1). The series is classed as in vivo.
The next series is described as follows: in vivo. The conditions noted are these: rat.
The conditions of series [3]: cited from earlier work; for reduction of free fatty acids (in words): test animals, low dosage between 0.5 and 30 mg/kg body weight.
The mark [4] stands for this setting: 100 mg/kg, high fat diet 3 weeks, blood 18 hours after last dose.
[5] abbreviates: high fat diet 3 weeks, blood 18 hours after last dose.

On to `O=C(Oc1cccc2c1CCCC2)c1cccnc1` [Example 7, 5,6,7,8-Tetrahydro-1-naphthyl-nicotinate], for which the results for the inhibition in vivo at 100 mg/kg in series [1] (setting [4]) and in series [2] were 22% and 18%, respectively.
On to `O=C(O)c1cccnc1` [Nicotinic acid, nicotinic acid, reference compound], for which the ED50 in “ED50 in rat (Table 1)” is ~500 mg/kg. The inhibition in vivo at 100 mg/kg in series [1] (18 h) worked out at 7%. Also, in “in vivo”, the LD50 was 4000 mg/kg and the selectivity ratio is 8. Besides, in series [3] (background), the “influence on lipids (in words)” value is “act predominantly on elevated cholesterol values and free fatty acids”; the “side effects (in words)” value was “flush, headache, nausea, vomiting”. Also, in series [3], the “reduction of free fatty acids (in words)” value is listed as “great reduction of the free fatty acids”.
Consider `CC(C)(Oc1ccc(Cl)cc1)C(=O)OCc1cccnc1` [3-pyridyl carbinol ester of clofibric acid], for which the “influence on lipids (in words)” value in series [3] (background) was “effective lipid- and cholesterol-lowering component”.
As for `CC(C)(Oc1ccc(Cl)cc1)C(=O)Oc1ccc(C(=O)CC23CC4CC(CC(C4)C2)C3)cc1` [Example 3, 2-(p-chlorophenoxy)-isobutyric acid-p-(1-adamantylacetyl)-phenyl ester], the inhibition in vivo at 100 mg/kg in series [1] (setting [4]) turned out to be 27%; in series [2], 35%.
For the molecule `OCc1cccnc1` [3-pyridyl carbinol], the “reduction of free fatty acids (in words)” value in series [3] is listed as “great reduction of the free fatty acids”.
In the series “ED50 in rat (Table 1)”, `O=C(Oc1ccc(C2CCCCC2)cc1)c1cccnc1` [Example 1, p-cyclohexylphenyl nicotinate] showed an ED50 of 50 mg/kg. Further, the inhibition in vivo at 100 mg/kg in series [1] (setting [4]) was determined as 45%. Besides, the inhibition in vivo at 100 mg/kg in series [2] turned out to be 19%. In the series “in vivo”, the LD50 is 2200 mg/kg and the selectivity ratio was 44.
Molecule `Cl.O=C(Oc1ccccc1C1CCCCC1)c1cccnc1` [Example 6, o-cyclohexylphenyl nicotinate hydrochloride] had an ED50 in the series “ED50 in rat (Table 1)” of 22 mg/kg. Further, the inhibition in vivo at 25 mg/kg in series [1] (setting [5]) came out at 18%. Also, the inhibition in vivo at 25 mg/kg in series [2] was determined as 16%. Also, in the series “in vivo”, the LD50 turned out to be 2050 mg/kg and the selectivity ratio was determined as 93.
As for `O=C(Oc1ccc(C23CC4CC(CC(C4)C2)C3)cc1)c1cccnc1` [Example 2, p-(1-adamantylphenyl)-nicotinate], the ED50 in “ED50 in rat (Table 1)” turned out to be 68 mg/kg. Moreover, the inhibition in vivo at 100 mg/kg in series [1] (setting [4]) stood at 28%. The inhibition in vivo at 100 mg/kg in series [2] stood at 47%. Moreover, in the series “in vivo”, the LD50 is 3200 mg/kg and the selectivity ratio came out at 47.
As for `CCOC(=O)C(C)(C)Oc1ccc(Cl)cc1` [clofibrate, ethyl ester of 2-(p-chlorophenoxy)-isobutyric acid, reference compound], the ED50 in the series “ED50 in rat (Table 1)” was ~300 mg/kg. Moreover, the inhibition in vivo at 100 mg/kg in series [2] came out at 8%. The molecule further displayed an LD50 in “in vivo” of 1500 mg/kg. In series [3] (in vivo), the “cases with cholesterol (CH) in the β- and α-lipoproteins further increased” value is given as “about 20%”; the “fall of the initial values of triglycerides (TG) and pre-β-lipoproteins” value is listed as “up to 50%”.
For the molecule `O=C(Oc1ccc(C(=O)c2ccc(Cl)cc2)cc1)c1cccnc1` [Example 10, p-chlorobenzoylphenyl nicotinate], the inhibition in vivo at 100 mg/kg in series [1] (setting [4]) is 29%.
Take `CC(C)(C)c1cc(C2CCCCC2)ccc1OC(=O)c1cccnc1` [Example 8, 2-t-butyl-4-cyclohexylphenyl nicotinate]: in “ED50 in rat (Table 1)”, the ED50 came out at 30 mg/kg. In addition, in series [1] (setting [5]), the inhibition in vivo at 25 mg/kg amounted to 9%. For the same molecule, the inhibition in vivo at 25 mg/kg in series [2] stood at 8%. In “in vivo”, the LD50 is 1700 mg/kg and the selectivity ratio is 56.
`CC(C)(c1ccccc1)c1ccc(OC(=O)c2cccnc2)cc1` [Example 9, p-cumylphenyl nicotinate]: the inhibition in vivo at 100 mg/kg in series [1] (setting [4]) amounted to 24%; in series [2], 1%.
